Results from paper PMC2099433, “The binding site for neohesperidin dihydrochalcone at the human sweet taste receptor” (BMC Structural Biology, 2007).

Tests used:
[1] = target: T1, rodent sweet taste receptor (Rattus norvegicus, UniProt Q923K1); experiment: Calcium response, rodent sweet taste receptor; format: cell-based
T1 construct: expressed in transfected cells; host or cells: HEK293T cells stably expressing G16Gust44
From the text: (§1) In order to elucidate the putative binding site for NHDC, we cotransfected mixtures of plasmid DNAs for the rat and human TAS1R2 and TAS1R3 receptor subunits in HEK293T cells stably expressing the chimeric G-protein G16Gust44 and measured cellular calcium responses by fluorometry following bath application of various sweet tasting compounds.
(§2) Figure 1 Chemical structure and calcium responses elicited by neohesperidin dihydrochalcone. (A) Structure of neohesperidin dihydrochalcone. Numbers denote carbon atom positions. […]
(§3) The cDNAs for TAS1Rs tagged at the C-terminus with the herpes simplex virus glycoprotein D (HSV) were transiently transfected into HEK293T cells stably expressing the chimeric G-protein subunit G16Gust44 [44] using Lipofectamine 2000 (Invitrogen, Carlsbad, CA) according to the manufacturer's protocol. […] We monitored calcium mobilization following receptor stimulation with sweet tastants by an automated fluorometric imaging plate reader (FLIPR, Molecular Devices, Sunnyvale, CA). […] The obtained calcium signals were corrected for the response of mock transfected cells and normalized to the fluorescence of cells prior to the application of the stimulus using ΔF/F = (F-F0)/F0. Concentration-response curves and EC50 and IC50 values were calculated in SigmaPlot by nonlinear regression using the function f = ((a-d)/(1+(x/EC50)^nH)+d) and f = (a-b)/[1+(x/IC50)^nH]+b, respectively.

[2] = target: T2, human TAS1R3 and rat Tas1r2 (Homo sapiens, UniProt Q7RTX0); experiment: Calcium response, interspecies subunit combination; format: cell-based; conditions: 1 mM NHDC
T2 construct: expressed in transfected cells; host or cells: HEK293T cells stably expressing G16Gust44
T2 sequence (Q7RTX0 21-852): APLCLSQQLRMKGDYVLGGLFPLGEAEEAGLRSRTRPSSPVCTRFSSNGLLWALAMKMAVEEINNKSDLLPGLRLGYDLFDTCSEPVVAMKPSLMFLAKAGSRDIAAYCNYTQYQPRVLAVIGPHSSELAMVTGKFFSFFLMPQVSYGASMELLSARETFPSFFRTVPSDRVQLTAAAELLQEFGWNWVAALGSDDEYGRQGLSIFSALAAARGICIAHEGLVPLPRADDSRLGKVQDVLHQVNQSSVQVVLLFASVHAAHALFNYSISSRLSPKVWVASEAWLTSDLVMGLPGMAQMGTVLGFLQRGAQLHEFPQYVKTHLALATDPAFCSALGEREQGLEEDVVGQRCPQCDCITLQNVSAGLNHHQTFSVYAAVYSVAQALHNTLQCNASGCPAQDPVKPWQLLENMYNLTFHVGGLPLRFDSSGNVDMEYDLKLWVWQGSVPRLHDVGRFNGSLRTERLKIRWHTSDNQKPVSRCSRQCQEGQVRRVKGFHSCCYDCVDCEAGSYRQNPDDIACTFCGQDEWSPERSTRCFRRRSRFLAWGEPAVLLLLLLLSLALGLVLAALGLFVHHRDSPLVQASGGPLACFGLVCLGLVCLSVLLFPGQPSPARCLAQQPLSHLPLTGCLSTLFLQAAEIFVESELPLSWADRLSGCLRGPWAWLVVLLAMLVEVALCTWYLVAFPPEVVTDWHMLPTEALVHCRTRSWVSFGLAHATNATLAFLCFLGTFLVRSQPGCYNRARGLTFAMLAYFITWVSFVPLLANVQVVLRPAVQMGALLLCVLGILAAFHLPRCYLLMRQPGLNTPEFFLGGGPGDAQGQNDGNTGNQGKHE
T2 sequence (Q9Z0R7 20-843 partner): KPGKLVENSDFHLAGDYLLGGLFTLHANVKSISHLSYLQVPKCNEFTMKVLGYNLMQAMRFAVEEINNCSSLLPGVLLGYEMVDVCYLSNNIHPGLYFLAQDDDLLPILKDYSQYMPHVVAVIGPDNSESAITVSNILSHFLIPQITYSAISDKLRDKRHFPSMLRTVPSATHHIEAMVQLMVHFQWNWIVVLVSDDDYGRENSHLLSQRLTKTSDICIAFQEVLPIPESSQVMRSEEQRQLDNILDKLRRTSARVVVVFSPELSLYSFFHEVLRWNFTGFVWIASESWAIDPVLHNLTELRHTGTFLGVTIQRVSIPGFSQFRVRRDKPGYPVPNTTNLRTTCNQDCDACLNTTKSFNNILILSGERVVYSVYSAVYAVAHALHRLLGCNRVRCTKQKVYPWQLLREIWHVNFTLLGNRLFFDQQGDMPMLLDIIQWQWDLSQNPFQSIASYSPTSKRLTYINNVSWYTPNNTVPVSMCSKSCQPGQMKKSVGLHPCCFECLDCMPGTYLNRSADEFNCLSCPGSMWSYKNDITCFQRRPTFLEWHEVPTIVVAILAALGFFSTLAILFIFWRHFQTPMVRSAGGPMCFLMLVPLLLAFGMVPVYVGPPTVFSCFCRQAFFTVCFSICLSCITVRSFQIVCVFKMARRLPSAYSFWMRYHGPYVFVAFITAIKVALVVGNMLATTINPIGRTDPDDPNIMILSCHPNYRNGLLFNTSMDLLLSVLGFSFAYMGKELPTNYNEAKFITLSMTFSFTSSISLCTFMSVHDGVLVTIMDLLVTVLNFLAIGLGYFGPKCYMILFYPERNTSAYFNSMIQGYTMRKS
From the text: as §1, §2, §3

[3] = target: T3, hTAS1R2 + hTAS1R3 L782A^6.55 (Homo sapiens, UniProt Q7RTX0+Q8TE23, L782A); parameters: method as in PMID 15668251; conditions: mutation L782A^6.55; cited from earlier work
T3 construct: expressed in transfected cells; host or cells: HEK293T cells stably expressing G16Gust44
T3 sequence (Q8TE23 20-839): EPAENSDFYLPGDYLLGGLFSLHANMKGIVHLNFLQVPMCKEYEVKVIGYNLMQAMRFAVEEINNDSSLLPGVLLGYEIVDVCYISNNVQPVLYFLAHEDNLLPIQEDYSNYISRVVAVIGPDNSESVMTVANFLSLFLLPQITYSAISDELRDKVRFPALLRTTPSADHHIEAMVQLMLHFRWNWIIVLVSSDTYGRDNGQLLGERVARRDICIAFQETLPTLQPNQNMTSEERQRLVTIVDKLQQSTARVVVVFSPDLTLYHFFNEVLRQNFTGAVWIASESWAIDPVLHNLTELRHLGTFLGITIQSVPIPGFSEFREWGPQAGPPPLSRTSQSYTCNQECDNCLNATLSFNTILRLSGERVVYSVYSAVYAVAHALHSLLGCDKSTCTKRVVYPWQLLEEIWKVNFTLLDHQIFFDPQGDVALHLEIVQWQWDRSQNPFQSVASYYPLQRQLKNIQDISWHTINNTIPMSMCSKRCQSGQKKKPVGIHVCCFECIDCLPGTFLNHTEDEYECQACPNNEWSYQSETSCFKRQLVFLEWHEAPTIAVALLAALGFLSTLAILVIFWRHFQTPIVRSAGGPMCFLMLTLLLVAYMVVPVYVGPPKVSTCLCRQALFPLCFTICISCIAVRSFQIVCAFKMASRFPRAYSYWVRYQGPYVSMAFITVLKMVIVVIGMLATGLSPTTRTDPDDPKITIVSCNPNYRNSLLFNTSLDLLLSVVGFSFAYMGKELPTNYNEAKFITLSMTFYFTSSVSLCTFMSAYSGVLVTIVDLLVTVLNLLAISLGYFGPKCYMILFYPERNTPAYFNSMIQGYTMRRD
T3 sequence (Q7RTX0 21-852 L782A): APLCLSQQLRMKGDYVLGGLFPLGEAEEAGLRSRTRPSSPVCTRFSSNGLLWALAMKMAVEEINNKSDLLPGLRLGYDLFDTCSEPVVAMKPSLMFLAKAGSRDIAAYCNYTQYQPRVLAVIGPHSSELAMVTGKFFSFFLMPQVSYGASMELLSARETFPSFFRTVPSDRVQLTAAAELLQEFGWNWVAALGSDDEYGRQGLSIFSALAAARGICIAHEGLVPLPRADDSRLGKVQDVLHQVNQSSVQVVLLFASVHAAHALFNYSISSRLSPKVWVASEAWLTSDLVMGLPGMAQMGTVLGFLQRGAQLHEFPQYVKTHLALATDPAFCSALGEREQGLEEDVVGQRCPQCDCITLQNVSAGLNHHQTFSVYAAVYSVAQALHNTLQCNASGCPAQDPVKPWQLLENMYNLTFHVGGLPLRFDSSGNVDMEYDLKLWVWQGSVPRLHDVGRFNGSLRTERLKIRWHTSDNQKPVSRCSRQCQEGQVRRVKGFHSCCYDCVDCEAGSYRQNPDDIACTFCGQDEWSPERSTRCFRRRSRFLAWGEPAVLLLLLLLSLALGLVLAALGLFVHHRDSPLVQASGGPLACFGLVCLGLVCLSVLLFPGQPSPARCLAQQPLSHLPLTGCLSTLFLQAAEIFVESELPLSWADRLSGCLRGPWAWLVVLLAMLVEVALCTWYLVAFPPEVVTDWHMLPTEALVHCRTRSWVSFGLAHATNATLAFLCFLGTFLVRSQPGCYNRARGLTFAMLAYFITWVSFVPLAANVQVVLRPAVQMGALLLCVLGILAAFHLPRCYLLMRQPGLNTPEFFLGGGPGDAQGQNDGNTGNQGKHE

T1 sequence (Q923K1 21-858): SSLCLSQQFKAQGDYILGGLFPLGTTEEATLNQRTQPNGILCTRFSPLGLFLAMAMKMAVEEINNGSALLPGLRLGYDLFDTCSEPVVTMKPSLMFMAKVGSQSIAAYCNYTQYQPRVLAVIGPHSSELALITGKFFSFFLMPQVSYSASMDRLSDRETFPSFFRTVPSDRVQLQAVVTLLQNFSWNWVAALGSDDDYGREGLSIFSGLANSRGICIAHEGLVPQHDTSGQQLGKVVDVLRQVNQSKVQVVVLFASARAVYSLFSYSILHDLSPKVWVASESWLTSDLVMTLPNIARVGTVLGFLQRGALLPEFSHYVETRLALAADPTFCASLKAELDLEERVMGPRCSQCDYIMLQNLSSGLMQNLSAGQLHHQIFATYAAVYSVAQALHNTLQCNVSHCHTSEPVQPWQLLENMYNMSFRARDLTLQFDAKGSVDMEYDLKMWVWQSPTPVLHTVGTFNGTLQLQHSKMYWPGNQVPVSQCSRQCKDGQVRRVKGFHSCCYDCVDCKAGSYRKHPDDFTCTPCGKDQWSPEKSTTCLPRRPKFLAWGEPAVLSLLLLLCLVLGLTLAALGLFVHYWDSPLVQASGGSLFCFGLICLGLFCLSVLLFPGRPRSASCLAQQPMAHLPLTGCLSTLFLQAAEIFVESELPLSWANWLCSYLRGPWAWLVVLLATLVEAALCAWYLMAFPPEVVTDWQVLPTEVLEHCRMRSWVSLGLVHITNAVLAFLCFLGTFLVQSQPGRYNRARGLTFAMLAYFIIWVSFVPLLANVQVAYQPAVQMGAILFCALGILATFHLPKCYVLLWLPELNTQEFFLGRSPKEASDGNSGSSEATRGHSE
T1 sequence (Q9Z0R7 20-843 partner): as the sequence (Q9Z0R7 20-843 partner) above

receptor activation [1]	calcium response [2]	Structure (SMILES)	receptor activation [3]
not the rodent sweet taste receptor	elicited calcium responses	COc1ccc(CCC(=O)c2c(O)cc(O[C@@H]3O[C@H](CO)[C@@H](O)[C@H](O)[C@H]3O[C@@H]3O[C@@H](C)[C@H](O)[C@@H](O)[C@H]3O)cc2O)cc1O [NHDC, neohesperidin dihydrochalcone]	
		O=S(=O)(O)NC1CCCCC1 [cyclamate]	abolished activation
